This passage reports Binding % results from US10927125B2, “Substituted cinnolines as inhibitors of KRAS G12C” (Araxes Pharma LLC, priority 2013, dated 2021).

T1 sequence (P01116 1-169 isoform P01116-2 G12C): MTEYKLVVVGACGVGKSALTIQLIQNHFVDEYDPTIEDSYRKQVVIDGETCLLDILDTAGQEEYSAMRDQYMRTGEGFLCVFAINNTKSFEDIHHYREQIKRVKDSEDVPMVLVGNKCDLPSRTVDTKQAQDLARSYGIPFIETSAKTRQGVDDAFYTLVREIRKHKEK

One assay concerns the target T1, KRAS G12C 1-169, his-tagged protein, GDP-loaded (Homo sapiens, UniProt P01116, G12C).
T1 construct: KRAS G12C 1-169, his-tagged protein, GDP-loaded
Put plainly: Biochemical assay: covalent binding of compounds to KRAS G12C, analysed by mass spectrometry. To be noted: binding measured at 30 min (compounds 247-375). On the procedure:
Compounds were tested for activity as follows:
Compounds were diluted to 50× final test concentration in DMSO in 96-well storage plates. […] Reactions were mixed carefully and thoroughly by pipetting up/down with a 200 μl multi-channel pipettor. The plate was sealed well with aluminum plate seal, and stored in drawer at room temperature for 30 min, 2 hour or 24 hrs. 51 μl of 2% formic acid (Fisher cat # A117) in DI H2O was then added to each well followed by mixing with a pipette. The plate was then resealed with aluminum seal and stored on dry ice until analyzed as described below.
The above described assays were analyzed by mass spectrometry according to the following procedure:
The MS instrument is set to positive polarity, 2 GHz resolution, and low mass (1700) mode and allowed to equilibrate for 30 minutes. The instrument is then calibrated, switched to acquisition mode and the appropriate method loaded.
After another 30 minute equilibration time, a blank batch (i.e., buffer) is run to ensure equipment is operating properly. The samples are thawed at 37° C. for 10 minutes, briefly centrifuged, and transfer to the bench top. Wells A1 and H12 are spiked with 1 uL 500 uM internal standard peptide, and the plates centrifuged at 2000×g for 5 minutes. The method is then run and masses of each individual well recorded.
The masses (for which integration data is desired) for each well are pasted into the platemap and exported from the analysis. Masses for the internal standards are exported as well. The data at 50 ppm is extracted for the +19 charge state, and identity of well A1 is assigned using the internal standard spike and integrated. Peak data is exported as a TOF list and the above steps are repeated individually, for the +20, 21, 22, 23, 24, and 25 charge states.
Regarding `C=CC(=O)N1CCN(c2nc(NC3CCN(CC(F)(F)F)C3)nc3c(F)c(-c4cc(O)cc5ccccc45)c(Cl)cc23)CC1` (stereo not drawn) [Compound 349, 1-(4-(6-chloro-8-fluoro-7-(3-hydroxynaphthalen-1-yl)-2-(1-(2,2,2-trifluoroethyl)pyrrolidin-3-ylamino)quinazolin-4-yl)piperazin-1-yl)prop-2-en-1-one], the Binding % entry is “+++ (+++ indicates binding activity greater than 50% and up to 75%)”.

For the compound `C=CC(=O)N1CCN(c2nc(NC3CCOCC3)nc3c(F)c(-c4c(C)ccc5[nH]ncc45)c(Cl)cc23)CC1` [Compound 365, 1-(4-(6-chloro-8-fluoro-7-(5-methyl-1H-indazol-4-yl)-2-(tetrahydro-2H-pyran-4-ylamino)quinazolin-4-yl)piperazin-1-yl)prop-2-en-1-one], the Binding % result was “++++ (++++ indicates binding activity greater than 75%)”.

Regarding `C=CC(=O)N1CCN(c2nc(CN(C)C)nc3c(F)c(-c4c(C)ccc5[nH]ncc45)c(Cl)cc23)CC1` [Compound 254, 1-(4-(6-chloro-2-((dimethylamino)methyl)-8-fluoro-7-(5-methyl-1H-indazol-4-yl)quinazolin-4-yl)piperazin-1-yl)prop-2-en-1-one], the Binding % result is “+++ (+++ indicates binding activity greater than 50% and up to 75%)”.

In the case of `C=CC(=O)N1CCN(c2nc(NCC(F)(F)F)nc3c(F)c(-c4c(C)ccc5[nH]ncc45)c(Cl)cc23)CC1` [Compound 356, 1-(4-(6-chloro-8-fluoro-7-(5-methyl-1H-indazol-4-yl)-2-(2,2,2-trifluoroethylamino)quinazolin-4-yl)piperazin-1-yl)prop-2-en-1-one], the Binding % entry is “+++ (+++ indicates binding activity greater than 50% and up to 75%)”.

Take `C=CC(=O)N1CCN(c2ncnc3c(OC)c(-c4c(C)ccc5[nH]ncc45)c(Cl)cc23)CC1` [Compound 302, 1-(4-(6-chloro-8-methoxy-7-(5-methyl-1H-indazol-4-yl)quinazolin-4-yl)piperazin-1-yl)prop-2-en-1-one]: the Binding % entry was “+++ (+++ indicates binding activity greater than 50% and up to 75%)”.

As for `C=CC(=O)N1CCN(c2nc(NCCN(C)C)nc3c(F)c(-c4cc(O)cc5ccccc45)c(Cl)cc23)CC1` [Compound 355, 1-(4-(6-chloro-2-(2-(dimethylamino)ethylamino)-8-fluoro-7-(3-hydroxynaphthalen-1-yl)quinazolin-4-yl)piperazin-1-yl)prop-2-en-1-one], the Binding % entry is listed as “++++ (++++ indicates binding activity greater than 75%)”.

`C=CC(=O)N1CCN(c2ncnc3cc(-c4cc(Cl)cc5[nH]ncc45)c(Cl)cc23)CC1` [Compound 266, 1-(4-(6-chloro-7-(6-chloro-1H-indazol-4-yl)quinazolin-4-yl)piperazin-1-yl)prop-2-en-1-one]: the Binding % result is “+++ (+++ indicates binding activity greater than 50% and up to 75%)”.

Turning to `C=CC(=O)N1CCN(c2nc(OCCN3CCN(C)CC3)nc3c(F)c(-c4c(C)ccc5[nH]ncc45)c(Cl)cc23)CC1` [Compound 373, 1-(4-(6-chloro-8-fluoro-7-(5-methyl-1H-indazol-4-yl)-2-(2-(4-methylpiperazin-1-yl)ethoxy)quinazolin-4-yl)piperazin-1-yl)prop-2-en-1-one], the Binding % result was “+++ (+++ indicates binding activity greater than 50% and up to 75%)”.

In the case of `C=CC(=O)N1CCN(c2ncnc3c(F)c(-c4c(F)cccc4CN(C)C)c(Cl)cc23)CC1` [Compound 362, 1-(4-(6-chloro-7-(2-((dimethylamino)methyl)-6-fluorophenyl)-8-fluoroquinazolin-4-yl)piperazin-1-yl)prop-2-en-1-one], the Binding % result is “++ (++ indicates binding activity greater than 25% and up to 50%)”.

Turning to `C=CC(=O)N1CCN(c2ncnc3cc(-c4c(O)cccc4F)c(Cl)c(F)c23)CC1` [Compound 343, 1-(4-(6-chloro-5-fluoro-7-(2-fluoro-6-hydroxyphenyl)quinazolin-4-yl)piperazin-1-yl)prop-2-en-1-one], the Binding % entry was “+++ (+++ indicates binding activity greater than 50% and up to 75%)”.

Consider `C=CC(=O)N1CCN(c2nc(N(C)CCN(C)C)nc3c(F)c(-c4c(C)ccc5[nH]ncc45)c(Cl)cc23)CC1` [Compound 371, 1-(4-(6-chloro-2-((2-(dimethylamino)ethyl)(meth-yl)amino)-8-fluoro-7-(5-methyl-1H-indazol-4-yl)quinazolin-4-yl)piperazin-1-yl)prop-2-en-1-one], for which the Binding % entry was “++ (++ indicates binding activity greater than 25% and up to 50%)”.

Staying with this assay, now noted: binding measured at 24 h (compounds 1-47).
As for `C=CC(=O)N1CCN(c2nccc3cc(Cl)c(-c4ccc(Cl)cc4O)cc23)CC1` [Compound 38, 1-(4-(6-chloro-7-(4-chloro-2-hydroxyphenyl)isoquinolin-1-yl)piperazin-1-yl)prop-2-en-1-one], the Binding % result is “++ (++ indicates binding activity greater than 25% and up to 50%)”.
